Patent publication US11530216B2, “Deuterated colony stimulating factor-1 receptor (CSF-1R) inhibitors” (Genzyme Corporation, priority 2020, dated 2022)

Assays:
[1] = Rat hepatocyte intrinsic clearance; format: in vitro ADME; details: 1 μM, 0.5 million cells/mL
Method: (§1) Incubations were performed in 0.5 million hepatocytes cells/mL at 1 μM concentration of test compound in duplicate with rat, human, dog, monkey, or mouse hepatocytes, and the concentration-time course of test compound depletion was determined after withdrawing samples from the incubation at assay time points followed by liquid chromatography with tandem mass spectrometry analysis. An organic solvent was used to terminate incubations.

[2] = Caco-2 permeability assay; format: in vitro ADME; details: human; for Papp at 90 min, 20 μM: apical pH 6.5, 90 min
Method: Caco-2 permeability and efflux assays were performed in cell-based permeability model using Caco-2/TC7 cells. For permeability assays, Caco-2/TC7 cells were seeded on to Millipore Millicell 96 and for efflux assays, 24-well plates were used. The plates with cells were ready to use between 21-25 days of culturing. Both permeability and efflux assays were performed using the TECAN automated liquid handling platform. For permeability assays, test compounds were prepared at 20 μM test concentrations in permeability assay buffer (10 mM HEPES in HBSS buffer, pH 6.5) containing 0.5% BSA. Basolateral permeability buffer (pH 7.4) contains 5% BSA. For efflux assays, test compounds were prepared at 1 μM test concentrations in permeability assay buffer (10 mM HEPES in HBSS buffer, pH 7.4) containing 0.5% BSA. For efflux assays, the basolateral permeability buffer (pH 7.4) contained 0.5% BSA. The permeability assay was initiated by adding 20 μM test solution to apical side of plate containing Caco-2/TC7 cells. In the efflux assay, 1 μM test compound was added to an apical compartment for apical to basolateral (A to B) permeability determination. For basolateral to apical (B to A) permeability determination, the test compound was added to the basolateral side. The plate was incubated for 90 min under constant shaking at 37° C. At the end of the incubation period, samples taken were analyzed using high pressure liquid chromatography with tandem mass spectrometry. For each assay, apparent permeability (Papp) and recovery was calculated from mass spectrometry data. For permeability assay, Papp values are reported as numbers×10^−07 cm/s. For efflux assays, the efflux ratio is calculated using Papp (basolateral to apical) to Papp (apical to basolateral), in addition to recovery values.

[3] = Monkey hepatocyte intrinsic clearance; format: in vitro ADME; details: 1 μM, 0.5 million cells/mL
Method: as §1

[4] = tested on: MCP-1 production in BV2 murine microglial cells; experiment: MCP-1 ELISA, BV2 microglial cells after CSF-1 stimulation; format: cell-based; details: Mus musculus, BV-2, 30 min pre-treatment, 100 ng/mL M-CSF 24 hours
Method: Microglia cells were allowed to rest overnight at 37° C., 5% CO2. […] After stimulation, the culture supernatant was removed from each well and aliquoted into two different 96-well plates for subsequent ELISA assays.

C57BL/6 EAE model = experiment: MOG-induced EAE model; format: in vivo, mouse; details: 15 mg/kg p.o. BID for 7 days; for mean disease scores: female C57BL/6J mice
Method: Experimental autoimmune encephalomyelitis (EAE) is primarily used as a non-clinical model of autoimmune inflammatory diseases of the CNS, and resembles many aspects of human multiple sclerosis. The myelin oligodendrocyte glycoprotein (MOG)-induced EAE model is ideal for exploring this immune-mediated mechanism of neuroinflammation and demyelination.
Test articles: • MOG35-55 peptide (New England Peptides, lot #BU01787)—250 μg/mouse in 4 mg/mL complete Freund's adjuvant (CFA; Chondrex Inc, Cat #7009, lot #190446) Bordetella pertussis toxin (PTX, Sigma, cat #P7208-5OUG, lot #MKCL 1350)—280 ng/mouse in 200 μL PBS • CSF-1R inhibitors—15 mg/kg • Vehicle—0.5% methylcellulose/0.2% Tween-80 Delivery: • MOG peptide & CFA: subcutaneous injection to 2 sites in the hind flank (100 μL/site). • Bordetella pertussis toxin: i.v. injection of 280 ng/mouse in 200 μL PBS on Day 0 and 2. • CSF1R inhibitor: oral gavage every 12 hours • Vehicle: oral gavage every 12 hours Time points: • Day 0—Administer MOG peptide in CFA and PTX to Groups 1-3 • Day 2—Administer PTX by i.v. to Groups 1-3 • Day 9—Begin daily scoring of mice • Day 11-14—Randomize mice to groups when reach score of 1 and begin treatment • Day ˜18-21—After 7 days of treatment, perfuse mice and euthanize animals.
Mice were clinically assessed daily for signs of paralytic disease and weighed intermittently to document weight loss. At study termination, ½ brain was fixed for histology and brain/liver/plasma were collected for exposure. Spinal cord and whole blood was collected for flow cytometry. Additional plasma aliquots were saved for follow up analysis.
Female C57BL/6J mice were immunized with an emulsion of MOG35-55 peptide (250 μg/mouse) in complete Freund's adjuvant (CFA). […] Following EAE induction, the mice were monitored daily for paralytic symptoms and scored for their clinical presentation using a progressive scoring system (Score 0: no disease; Score 1: flaccid tail; Score 2: hindlimb weakness; Score 3: hindlimb paralysis; Score 4: Front limb weakness or partial paralysis; Score 5: death). […]

[5] = Human hepatocyte intrinsic clearance; format: in vitro ADME; details: human, hepatocytes
Method: as §1
(§2) These available known AO substrates along with the test compounds were analyzed using three in vitro systems (pooled human liver cytosol, liver S-9 fractions and human hepatocytes isolated from livers perfused with HTK media). Scaled unbound intrinsic clearances were calculated for the test compounds/new chemical entities and were compared to the in vivo unbound intrinsic clearances of the known AO substrates.

[6] = Human liver S-9 intrinsic clearance; format: in vitro ADME; details: human; for CLint scaled at 1 μM: s9
Method: as §1, with “1 mg/mL human liver cytosol with high aldehyde oxidase (AO)/xanthine oxidase (XO) activity or 2.5 mg/mL human liver S-9 fraction with high AO/XO activity” for “0.5 million hepatocytes cells/mL”, “duplicate,” for “duplicate with rat, human, dog, monkey, or mouse hepatocytes,”
as §2

[7] = s9, Human Liver S-9 Intrinsic Clearance _1
[8] = s9, Human Liver S-9 Intrinsic Clearance _2

Row | Compound | Rat Hepatocyte Intrinsic Clearance [1] | recovery at 90 min, 20 μM [2] | Papp at 90 min, 20 μM [2] | Monkey Hepatocyte Intrinsic Clearance [3] | IC50 [4] | paralytic symptoms (C57BL/6 EAE model; compared with Compound 24) | mean disease scores (C57BL/6 EAE model) | CLint scaled at 1 μM [5] | hepatocyte CLint at 1 μM [5] | CLint scaled at 1 μM [6] | microsomal CLint at 1 μM [6, 7] | microsomal CLint at 1 μM [6, 8]
1 | [2H]c1nc2cccnc2n1Cc1cc(OC)c2c(c1)O[C@@H](C)[C@H](c1ccc(OC)nc1)O2 [Compound 6, 3-(((2S,3S)-8-methoxy-2-(6-methoxypyridin-3-yl)-3-methyl-2,3-dihydrobenzo[b][1,4]dioxin-6-yl)methyl)-3H-imidazo[4,5-b]pyridine-2-d] | 9.00 μL/min/10^7 cells | 73% | 37.7 ×10⁻⁶ cm/s | 27.2 μL/min/10^7 cells | 28.8 to 36.5 nM | ameliorated paralytic symptoms to a surprisingly greater extent than nondeuterated Compound 24 | significantly mean disease scores | 20 mL/min/kg | 7.88 µL/min/1e6 cells | 3.6 mL/min/kg | < 1.1 µL/min/mg | < 1.1 µL/min/mg
2 | COc1ccc(C2Oc3c(OC)cc(Cn4cnc5cccnc54)cc3O[C@H]2C)cn1 (some centres unmarked) [Compound 24] | 8.72 μL/min/10^7 cells | 80% | 37.7 ×10⁻⁶ cm/s | >92 μL/min/10^7 cells | 28.8 to 36.5 nM |  | significantly mean disease scores | 32.3 mL/min/kg | 12.7 µL/min/1e6 cells | 9 mL/min/kg | 3.06 µL/min/mg | 2.76 µL/min/mg
